Laboratory results from patent US20230013823A1, “INHIBITORS OF HUMAN IMMUNODEFICIENCY VIRUS REPLICATION” (VIV HEALTHCARE UK (No. 5) LIMITED, priority 2019, published 2023).

Assays:
[1] = system: recombinant NL4-3 virus (Renilla luciferase in nef); test: HIV cell culture assay (antiviral activity, luciferase readout in MT-2 cells); format: cell-based; conditions: Renilla, NL43
Experimental: HIV cell culture assay—MT=2 cells, 293T cells and the proviral DNA clone of NL4-3 virus were obtained from the NIH AIDS Research and Reference Reagent Program. MT=2 cells were propagated in RPMI 1640 media supplemented with 10% heat inactivated fetal bovine serum (FBS), […] penicillin G and up to 100 units/mL streptomycin. The 293T cells were propagated in DMEM media supplemented with 10% heat inactivated FBS, […] penicillin G and […] streptomycin. A recombinant NL4-3 proviral clone, in which a section of the nef gene was replaced with the Renilla luciferase gene, was used to make the reference virus used in these studies. The recombinant virus was prepared through transfection of the recombinant NL4-3 proviral clone into 293T cells using Transit-293 Transfection Reagent from Mirus Bio LLC (Madison, Wis.). Supernatent was harvested after 2-3 days and the amount of virus present was titered in MT=2 cells using luciferase enzyme activity as a marker by measuring luciferase enzyme activity. Luciferase was quantitated using the EnduRen Live Cell Substrate from Promega (Madison, Wis.). Antiviral activities of compounds toward the recombinant virus were quantified by measuring luciferase activity in MT=2 cells infected for 4-5 days with the recombinant virus in the presence of serial dilutions of the compound.
The 50% effective concentration (EC50) was calculated by using the exponential form of the median effect equation where (Fa)=1/[1+(ED50/drug conc.)m] (Johnson V A, Byington R T. Infectivity Assay. In Techniques in HIV Research. ed. Aldovini A, Walker B D. 71-76. New York: Stockton Press. 1990). The 50% inhibitory concentration (EC50) was calculated by using the exponential form of the median effect equation where percent inhibition=1/[1+(EC50/drug concentration)m], where m is a parameter that reflects the slope of the concentration-response curve.

[2] = Compound cytotoxicity, XTT-based colorimetric assay; format: cell-based; conditions: human; uninfected MT2 cells, day 4, XTT
Experimental: Compound cytotoxicity and the corresponding CC50 values were determined using the same protocol as described in the antiviral assay except that uninfected cells were used. Cytotoxicity was assessed on day 4 in uninfected MT2 cells by using an XTT (2,3-bis[2-Methoxy-4-nitro-5-sulfophenyl]-2H-tetrazolium-5-carboxyanilide inner salt)-based colorimetric assay (Sigma-Aldrich, St Louis, Mo.).

Row | Compound | EC50 [1] [nM] | CC50 at 4 days [2] [nM]
1 | Cn1nc(NS(C)(=O)=O)c2c(Cl)ccc(-n3c([C@H](Cc4cc(F)cc(F)c4)NC(=O)Cn4nc(C(F)F)c5c4C(F)(F)[C@@H]4C[C@H]54)nc4cc(-c5cc(C(C)(F)F)ccn5)ccc4c3=O)c21 (atropisomer, axis not shown; (P)) [Example 37, N—((S)-1-((3P)-3-(4-chloro-1-methyl-3-(methylsulfonamido)-1H-indazol-7-yl)-7-(4-(1,1-difluoroethyl)pyridin-2-yl)-4-oxo-3,4-dihydroquinazolin-2-yl)-2-(3,5-difluorophenyl)ethyl)-2-((3bS,4aR)-3-(difluoromethyl)-5,5-difluoro-3b,4,4a,5-tetrahydro-1H-cyclopropa[3,4]cyclopenta[1,2-c]pyrazol-1-yl)acetamide] | 0.33 | > 100
2 | Cn1nc(NS(C)(=O)=O)c2c(Cl)ccc(-n3c([C@H](Cc4cc(F)cc(F)c4)NC(=O)Cn4nc(C(F)F)c5c4C(F)(F)[C@@H]4C[C@H]54)nc4cc(-c5ccc6ocnc6c5)ccc4c3=O)c21 (atropisomer, axis not shown; (P)) [Example 46, N—((S)-1-(7-(benzo[d]oxazol-5-yl)-(3P)-3-(4-chloro-1-methyl-3-(methylsulfonamido)-1H-indazol-7-yl)-4-oxo-3,4-dihydroquinazolin-2-yl)-2-(3,5-difluorophenyl)ethyl)-2-((3bS,4aR)-3-(difluoromethyl)-5,5-difluoro-3b,4,4a,5-tetrahydro-1H-cyclopropa[3,4]cyclopenta[1,2-c]pyrazol-1-yl)acetamide] | 0.34 | > 100
3 | Cn1nc(NS(C)(=O)=O)c2c(Cl)ccc(-n3c([C@H](Cc4cc(F)cc(F)c4)NC(=O)Cn4nc(C(F)F)c5c4C(F)(F)[C@@H]4C[C@H]54)nc4cc(-n5cc(C(F)(F)F)cn5)ccc4c3=O)c21 (atropisomer, axis not shown; (P)) [Example 38, N—((S)-1-((3P)-3-(4-chloro-1-methyl-3-(methylsulfonamido)-1H-indazol-7-yl)-4-oxo-7-(4-(trifluoromethyl)-1H-pyrazol-1-yl)-3,4-dihydroquinazolin-2-yl)-2-(3,5-difluorophenyl)ethyl)-2-((3bS,4aR)-3-(difluoromethyl)-5,5-difluoro-3b,4,4a,5-tetrahydro-1H-cyclopropa[3,4]cyclopenta[1,2-c]pyrazol-1-yl)acetamide] | 0.17 | > 100
4 | Cn1nc(NS(C)(=O)=O)c2c(Cl)ccc(-n3c([C@H](Cc4cc(F)cc(F)c4)NC(=O)Cn4nc(C(F)F)c5c4C(F)(F)[C@@H]4C[C@H]54)nc4cc(-c5ccn(CC(F)(F)C(F)F)n5)ccc4c3=O)c21 (atropisomer, axis not shown; (P)) [Example 47, N—((S)-1-((3P)-3-(4-chloro-1-methyl-3-(methylsulfonamido)-1H-indazol-7-yl)-4-oxo-7-(1-(2,2,3,3-tetrafluoropropyl)-1H-pyrazol-3-yl)-3,4-dihydroquinazolin-2-yl)-2-(3,5-difluorophenyl)ethyl)-2-((3bS,4aR)-3-(difluoromethyl)-5,5-difluoro-3b,4,4a,5-tetrahydro-1H-cyclopropa[3,4]cyclopenta[1,2-c]pyrazol-1-yl)acetamide] | 0.07 | > 100
5 | CCC(F)(F)Cn1ccc(-c2ccc3c(=O)n(-c4ccc(Cl)c5c(NS(C)(=O)=O)nn(C)c45)c([C@H](Cc4cc(F)cc(F)c4)NC(=O)Cn4nc(C(F)F)c5c4C(F)(F)[C@@H]4C[C@H]54)nc3c2)n1 (atropisomer, axis not shown; (P)) [Example 49, N—((S)-1-((3P)-3-(4-chloro-1-methyl-3-(methylsulfonamido)-1H-indazol-7-yl)-7-(1-(2,2-difluorobutyl)-1H-pyrazol-3-yl)-4-oxo-3,4-dihydroquinazolin-2-yl)-2-(3,5-difluorophenyl)ethyl)-2-((3bS,4aR)-3-(difluoromethyl)-5,5-difluoro-3b,4,4a,5-tetrahydro-1H-cyclopropa[3,4]cyclopenta[1,2-c]pyrazol-1-yl)acetamide] | 0.081 | > 100
6 | Cn1nc(NS(C)(=O)=O)c2c(Cl)ccc(-n3c([C@H](Cc4cc(F)cc(F)c4)NC(=O)Cn4nc(C(F)F)c5c4C(F)(F)[C@H]4C[C@@H]54)nc4cc(-c5ccnn5C5CC5)ccc4c3=O)c21 (atropisomer, axis not shown; (P)) [Example 43, N—((S)-1-((3P)-3-(4-chloro-1-methyl-3-(methylsulfonamido)-1H-indazol-7-yl)-7-(1-cyclopropyl-1H-pyrazol-5-yl)-4-oxo-3,4-dihydroquinazolin-2-yl)-2-(3,5-difluorophenyl)ethyl)-2-((3bS,4aR)-3-(difluoromethyl)-5,5-difluoro-3b,4,4a,5-tetrahydro-1H-cyclopropa[3,4]cyclopenta[1,2-c]pyrazol-1-yl)acetamide] | 0.13 | > 100
7 | Cn1nccc1-c1ccc2c(=O)n(-c3ccc(Cl)c4c(NS(C)(=O)=O)nn(C)c34)c([C@H](Cc3cc(F)cc(F)c3)NC(=O)Cn3nc(C(F)F)c4c3C(F)(F)[C@@H]3C[C@H]43)nc2c1 (atropisomer, axis not shown; (P)) [Example 20, N—((S)-1-((3P)-3-(4-chloro-1-methyl-3-(methylsulfonamido)-1H-indazol-7-yl)-7-(1-methyl-1H-pyrazol-5-yl)-4-oxo-3,4-dihydroquinazolin-2-yl)-2-(3,5-difluorophenyl)ethyl)-2-((3bS,4aR)-3-(difluoromethyl)-5,5-difluoro-3b,4,4a,5-tetrahydro-1H-cyclopropa[3,4]cyclopenta[1,2-c]pyrazol-1-yl)acetamide] | 0.056 | > 500
8 | Cn1nc(NS(C)(=O)=O)c2c(Cl)ccc(-n3c([C@H](Cc4cc(F)cc(F)c4)NC(=O)Cn4nc(C(F)F)c5c4C(F)(F)[C@@H]4C[C@H]54)nc4cc(-c5ccnc(C(F)(F)F)n5)ccc4c3=O)c21 (atropisomer, axis not shown; (P)) [Example 27, N—((S)-1-((3P)-3-(4-chloro-1-methyl-3-(methylsulfonamido)-1H-indazol-7-yl)-4-oxo-7-(2-(trifluoromethyl)pyrimidin-4-yl)-3,4-dihydroquinazolin-2-yl)-2-(3,5-difluorophenyl)ethyl)-2-((3bS,4aR)-3-(difluoromethyl)-5,5-difluoro-3b,4,4a,5-tetrahydro-1H-cyclopropa[3,4]cyclopenta[1,2-c]pyrazol-1-yl)acetamide] | 0.066 | > 100
9 | Cn1nc(NS(C)(=O)=O)c2c(Cl)ccc(-n3c([C@H](Cc4cc(F)cc(F)c4)NC(=O)Cn4nc(C(F)F)c5c4C(F)(F)[C@@H]4C[C@H]54)nc4cc(-c5ccnc(C(F)F)n5)ccc4c3=O)c21 (atropisomer, axis not shown; (P)) [Example 56, N—((S)-1-((3P)-3-(4-chloro-1-methyl-3-(methylsulfonamido)-1H-indazol-7-yl)-7-(2-(difluoromethyl)pyrimidin-4-yl)-4-oxo-3,4-dihydroquinazolin-2-yl)-2-(3,5-difluorophenyl)ethyl)-2-((3bS,4aR)-3-(difluoromethyl)-5,5-difluoro-3b,4,4a,5-tetrahydro-1H-cyclopropa[3,4]cyclopenta[1,2-c]pyrazol-1-yl)acetamide] | 0.017 | > 100
10 | Cn1nc(NS(C)(=O)=O)c2c(Cl)ccc(-n3c([C@H](Cc4cc(F)cc(F)c4)NC(=O)Cn4nc(C(F)F)c5c4C(F)(F)[C@@H]4C[C@H]54)nc4cc(-c5ccnc(S(C)(=O)=O)n5)ccc4c3=O)c21 (atropisomer, axis not shown; (P)) [Example 9, N—((S)-1-((3P)-3-(4-chloro-1-methyl-3-(methylsulfonamido)-1H-indazol-7-yl)-7-(2-(methylsulfonyl)pyrimidin-4-yl)-4-oxo-3,4-dihydroquinazolin-2-yl)-2-(3,5-difluorophenyl)ethyl)-2-((3bS,4aR)-3-(difluoromethyl)-5,5-difluoro-3b,4,4a,5-tetrahydro-1H-cyclopropa[3,4]cyclopenta[1,2-c]pyrazol-1-yl)acetamide] | 0.15 | > 500
11 | Cn1nc(NS(C)(=O)=O)c2c(Cl)ccc(-n3c([C@H](Cc4cc(F)cc(F)c4)NC(=O)Cn4ccc(C5CC5)n4)nc4cc(-c5ccn(CC(C)(F)F)n5)ccc4c3=O)c21 (atropisomer, axis not shown; (P)) [Example 61, (S)—N-(1-((3P)-3-(4-chloro-1-methyl-3-(methylsulfonamido)-1H-indazol-7-yl)-7-(1-(2,2-difluoropropyl)-1H-pyrazol-3-yl)-4-oxo-3,4-dihydroquinazolin-2-yl)-2-(3,5-difluorophenyl)ethyl)-2-(3-cyclopropyl-1H-pyrazol-1-yl)acetamide] | 0.057 | > 100
